How the values were obtained:
Assay in all cases: relative viability (nuclei count vs DMSO), 5 days (fraction); higher = more cells survive
Veliparib + Pictilisib = compound: C[C@]1(c2nc3c(C(N)=O)cccc3[nH]2)CCCN1 [Veliparib] + CS(=O)(=O)N1CCN(Cc2cc3nc(-c4cccc5[nH]ncc45)nc(N4CCOCC4)c3s2)CC1 [Pictilisib] (partner 1 µM)
Outline: (§1)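 Relative viability was taken as the ratio of nuclei in treated wells to nuclei in vehicle wells. Lung cancer cell lines in 1536-well plates received compounds by pin tool one day after seeding, either one drug alone or a fixed anchor-drug dose plus five library-drug doses (not always all listed) in √10 steps. Nuclei were counted on 4× images after 5 days of treatment, and values are medians of duplicate plates.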

[1] = compound: COC1=CC=C(C=C1)CN2C=CC3=C2C=C(C=C3)C(=O)NO + CCNC(=O)c1noc(-c2cc(C(C)C)c(O)cc2O)c1-c1ccc(CN2CCOCC2)cc1 [Luminespib] (partner 0.01 µM)
Outline: as §1

[2] = compound: COC1=CC=C(C=C1)CN2C=CC3=C2C=C(C=C3)C(=O)NO + CC(=O)Nc1cccc(-n2c(=O)n(C3CC3)c(=O)c3c(Nc4ccc(I)cc4F)n(C)c(=O)c(C)c32)c1 [Trametinib] (partner 0.02 µM)
Outline: as §1

Veliparib + Olaparib = compound: C[C@]1(c2nc3c(C(N)=O)cccc3[nH]2)CCCN1 [Veliparib] + O=C(c1cc(Cc2n[nH]c(=O)c3ccccc23)ccc1F)N1CCN(C(=O)C2CC2)CC1 [Olaparib] (partner 8 µM)
Outline: as §1

NCI-H3122
relative viability (Veliparib + Pictilisib; first compound 0.02 µM): 0.576
relative viability (Veliparib + Pictilisib; first compound 0.06325 µM): 0.599
relative viability (Veliparib + Pictilisib; first compound 0.2 µM): 0.673
relative viability (Veliparib + Pictilisib; first compound 0.6325 µM): 0.552
relative viability (Veliparib + Pictilisib; first compound 2 µM): 0.611
relative viability ([1]; first compound 0.08 µM): 0.0872
relative viability ([1]; first compound 0.253 µM): 0.107
relative viability ([1]; first compound 0.8 µM): 0.141
relative viability ([1]; first compound 2.53 µM): 0.0763
relative viability ([1]; first compound 8 µM): 0.0869
relative viability ([2]; first compound 0.08 µM): 0.276
relative viability ([2]; first compound 0.253 µM): 0.13
relative viability ([2]; first compound 0.8 µM): 0.225
relative viability ([2]; first compound 2.53 µM): 0.217
relative viability ([2]; first compound 8 µM): 0.222
relative viability (Veliparib + Olaparib; first compound 0.02 µM): 0.628
relative viability (Veliparib + Olaparib; first compound 0.06325 µM): 0.571
relative viability (Veliparib + Olaparib; first compound 0.2 µM): 0.549
relative viability (Veliparib + Olaparib; first compound 0.6325 µM): 0.619
relative viability (Veliparib + Olaparib; first compound 2 µM): 0.623

PC-3 [JPC-3]
relative viability (Veliparib + Pictilisib; first compound 0.02 µM): 0.774
relative viability (Veliparib + Pictilisib; first compound 0.06325 µM): 0.689
relative viability (Veliparib + Pictilisib; first compound 0.2 µM): 0.774
relative viability (Veliparib + Pictilisib; first compound 0.6325 µM): 0.69
relative viability (Veliparib + Pictilisib; first compound 2 µM): 0.758
relative viability ([1]; first compound 0.08 µM): 0.797
relative viability ([1]; first compound 0.253 µM): 0.746
relative viability ([1]; first compound 0.8 µM): 0.655
relative viability ([1]; first compound 2.53 µM): 0.729
relative viability ([1]; first compound 8 µM): 0.753
relative viability ([2]; first compound 0.08 µM): 0.641
relative viability ([2]; first compound 0.8 µM): 0.75
relative viability ([2]; first compound 2.53 µM): 0.702
relative viability ([2]; first compound 8 µM): 0.683
relative viability (Veliparib + Olaparib; first compound 0.02 µM): 1.17
relative viability (Veliparib + Olaparib; first compound 0.2 µM): 1.22
relative viability (Veliparib + Olaparib; first compound 0.6325 µM): 1.06
relative viability (Veliparib + Olaparib; first compound 2 µM): 1.07

PC-14
relative viability (Veliparib + Pictilisib; first compound 0.02 µM): 0.624
relative viability (Veliparib + Pictilisib; first compound 0.06325 µM): 0.513
relative viability (Veliparib + Pictilisib; first compound 0.2 µM): 0.616
relative viability (Veliparib + Pictilisib; first compound 0.6325 µM): 0.673
relative viability (Veliparib + Pictilisib; first compound 2 µM): 0.662
relative viability ([1]; first compound 0.8 µM): 0.184
relative viability ([1]; first compound 2.53 µM): 0.14
relative viability ([1]; first compound 8 µM): 0.134
relative viability ([2]; first compound 0.08 µM): 0.741
relative viability ([2]; first compound 0.253 µM): 0.687
relative viability ([2]; first compound 0.8 µM): 0.753
relative viability ([2]; first compound 2.53 µM): 0.722
relative viability ([2]; first compound 8 µM): 0.734
relative viability (Veliparib + Olaparib; first compound 0.02 µM): 0.342
relative viability (Veliparib + Olaparib; first compound 0.06325 µM): 0.326
relative viability (Veliparib + Olaparib; first compound 0.2 µM): 0.368
relative viability (Veliparib + Olaparib; first compound 0.6325 µM): 0.38
relative viability (Veliparib + Olaparib; first compound 2 µM): 0.204

RERF-LC-KJ
relative viability (Veliparib + Pictilisib; first compound 0.02 µM): 0.59
relative viability (Veliparib + Pictilisib; first compound 0.06325 µM): 0.529
relative viability (Veliparib + Pictilisib; first compound 0.2 µM): 0.592
relative viability (Veliparib + Pictilisib; first compound 0.6325 µM): 0.563
relative viability (Veliparib + Pictilisib; first compound 2 µM): 0.454
relative viability ([1]; first compound 0.08 µM): 1.24
relative viability ([1]; first compound 0.253 µM): 1.35
relative viability ([1]; first compound 0.8 µM): 1.17
relative viability ([1]; first compound 2.53 µM): 1.26
relative viability ([1]; first compound 8 µM): 1.08
relative viability ([2]; first compound 0.08 µM): 0.865
relative viability ([2]; first compound 0.253 µM): 1.06
relative viability ([2]; first compound 0.8 µM): 0.827
relative viability ([2]; first compound 2.53 µM): 0.892
relative viability ([2]; first compound 8 µM): 0.809
relative viability (Veliparib + Olaparib; first compound 0.02 µM): 1.03
relative viability (Veliparib + Olaparib; first compound 0.06325 µM): 0.795
relative viability (Veliparib + Olaparib; first compound 0.2 µM): 0.814
relative viability (Veliparib + Olaparib; first compound 0.6325 µM): 0.881
relative viability (Veliparib + Olaparib; first compound 2 µM): 0.85

SK-LU-1
relative viability (Veliparib + Pictilisib; first compound 0.02 µM): 0.624
relative viability (Veliparib + Pictilisib; first compound 0.06325 µM): 0.573
relative viability (Veliparib + Pictilisib; first compound 0.2 µM): 0.483
relative viability (Veliparib + Pictilisib; first compound 0.6325 µM): 0.585
relative viability (Veliparib + Pictilisib; first compound 2 µM): 0.536
relative viability ([1]; first compound 0.08 µM): 0.184
relative viability ([1]; first compound 0.253 µM): 0.197
relative viability ([1]; first compound 0.8 µM): 0.183
relative viability ([1]; first compound 2.53 µM): 0.191
relative viability ([1]; first compound 8 µM): 0.185
relative viability ([2]; first compound 0.08 µM): 0.347
relative viability ([2]; first compound 0.253 µM): 0.537
relative viability ([2]; first compound 0.8 µM): 0.51
relative viability ([2]; first compound 2.53 µM): 0.579
relative viability ([2]; first compound 8 µM): 0.447
relative viability (Veliparib + Olaparib; first compound 0.02 µM): 0.492
relative viability (Veliparib + Olaparib; first compound 0.06325 µM): 0.415
relative viability (Veliparib + Olaparib; first compound 0.2 µM): 0.491
relative viability (Veliparib + Olaparib; first compound 0.6325 µM): 0.364
relative viability (Veliparib + Olaparib; first compound 2 µM): 0.424

SK-MES-1
relative viability (Veliparib + Pictilisib; first compound 0.02 µM): 0.373
relative viability (Veliparib + Pictilisib; first compound 0.06325 µM): 0.295
relative viability (Veliparib + Pictilisib; first compound 0.2 µM): 0.402
relative viability (Veliparib + Pictilisib; first compound 0.6325 µM): 0.336
relative viability (Veliparib + Pictilisib; first compound 2 µM): 0.347
relative viability ([1]; first compound 0.08 µM): 0.795
relative viability ([1]; first compound 0.253 µM): 0.833
relative viability ([1]; first compound 0.8 µM): 0.609
relative viability ([1]; first compound 2.53 µM): 0.795
relative viability ([1]; first compound 8 µM): 0.504
relative viability ([2]; first compound 0.08 µM): 0.549
relative viability ([2]; first compound 0.253 µM): 0.551
relative viability ([2]; first compound 0.8 µM): 0.549
relative viability ([2]; first compound 2.53 µM): 0.586
relative viability ([2]; first compound 8 µM): 0.575
relative viability (Veliparib + Olaparib; first compound 0.02 µM): 0.931
relative viability (Veliparib + Olaparib; first compound 0.06325 µM): 0.748
relative viability (Veliparib + Olaparib; first compound 0.2 µM): 0.77
relative viability (Veliparib + Olaparib; first compound 0.6325 µM): 0.632
relative viability (Veliparib + Olaparib; first compound 2 µM): 0.686

UMC-11
relative viability (Veliparib + Pictilisib; first compound 0.02 µM): 0.779
relative viability (Veliparib + Pictilisib; first compound 0.06325 µM): 0.891
relative viability (Veliparib + Pictilisib; first compound 0.2 µM): 0.817
relative viability (Veliparib + Pictilisib; first compound 0.6325 µM): 0.876
relative viability (Veliparib + Pictilisib; first compound 2 µM): 0.883
relative viability ([1]; first compound 0.253 µM): 1.13
relative viability ([1]; first compound 0.8 µM): 0.98
relative viability ([1]; first compound 2.53 µM): 0.904
relative viability ([1]; first compound 8 µM): 1.01
relative viability ([2]; first compound 0.08 µM): 0.225
relative viability ([2]; first compound 0.253 µM): 0.708
relative viability ([2]; first compound 0.8 µM): 0.712
relative viability ([2]; first compound 2.53 µM): 0.735
relative viability ([2]; first compound 8 µM): 0.666
relative viability (Veliparib + Olaparib; first compound 0.02 µM): 0.627
relative viability (Veliparib + Olaparib; first compound 0.06325 µM): 0.336
relative viability (Veliparib + Olaparib; first compound 0.2 µM): 0.485
relative viability (Veliparib + Olaparib; first compound 0.6325 µM): 0.359
relative viability (Veliparib + Olaparib; first compound 2 µM): 0.438
